Like-named read-outs stand apart in the source and are kept apart here.
Columns and labels:
Rhipicephalus sanguineus = assay: Antiparasitic activity after administration to dogs, R. sanguineus ticks; type: in vivo; conditions: RS
Description: (§1) Measurement of the Antiparasitic Activity after Administration of a Prodrug to Dogs
(§2) Compounds were dissolved in the appropriate volume of glycerol formal (p.a.) just before application to the animals (dose volume was adjusted to 0.1 ml/kg bodyweight). Dogs were injected intravenously respective subcutaneously (see table 8 for details).
(§3) Dogs were infested with ectoparasites according to table on study 1 day prior to counting for fleas, 2 days prior to counting for RS, IR, DV ticks and 3 days prior to counting for AA ticks. For this purpose, dogs were placed in an individually labeled box with grid windows. The ticks were released onto the back of the dogs and were allowed to disperse and move into the hair without disturbance. The dog remained in the box for approximately 120 minutes with the lid closed and the light switched off in the room. For flea infestations, flea containers were opened in the animal's cage and fleas were applied on the dog's back between the shoulders.
(§4) Tick counts including removal of I. ricinus, R. sanguineus and D. variabilis were conducted 48(±4) hours after the infestation. Tick counts including removal of A. americanum were conducted 72(±4) hours after the infestation. Flea counts were conducted 24(±4) hours after the infestation.
(§5) On each parasite assessment day percent efficacy was calculated as arithmetic mean parasite numbers as life attached and live free tick numbers and live flea numbers of the respective study group in comparison to parasite counts on a placebo non-treated control group.

[1] = Evaluation of pharmacokinetics (in vivo), dog; conditions: concentration of parent compound A
Description: Evaluation of Pharmacokinetics (In Vivo) To evaluate the pharmacokinetics of test substances in vivo, these test substances are dissolved in appropriate formulation vehicles (ethanol, dimethyl sulfoxide, PEG400, glycerol formal etc.), or mixtures thereof. The test substances are then administered to rats or dogs intravenously, orally or subcutaneously. The intravenous application is performed as bolus. Administered doses range usually between 0.1 to 5 mg/kg, however, doses for subcutaneous and oral administration can exceed this range up to doses of 30 mg/kg. Blood samples are retrieved via a catheter, exsanguination or venous puncture in vials containing appropriate anticoagulants, such as lithium heparinate or potassium EDTA. Plasma is generated from the blood via centrifugation. Blood samples are taken over an appropriate time interval, usually lasting up to 144h after administration. If necessary, samples from later time points can also be taken. […] The quantitative measurement of the test substances in the samples is performed using calibration curves in the respective matrices. […] The evaluation of the plasma concentration/time profiles are afterwards evaluated using a validated pharmacokinetics evaluation program. […]

Ctenocephalides felis [2] = assay: Antiparasitic activity after administration to rats, fleas; type: in vivo; conditions: Ctenocephalides felis, ip, 10 mg/kg, CF A
Description: (§6) Measurement of the Antiparasitic Activity after Administration of a Prodrug to Rats Compounds were dissolved in the appropriate volume of glycerol formal (p.a.) just before application to the animals (dose volume was adjusted to 0.03 mL/kg bodyweight). 5 rats per group were either injected intraperitoneally or subcutaneously. Rats were infested with 30 Dermacentor variabilis nymphs on study days −2, 7, 14, 21, 28, 35 and 30 adult Ctenocephalides fleas on study days −1, 8, 15, 22, 29, 36. […] Percent efficacy was calculated as arithmetic mean parasite numbers as life attached tick numbers and live flea numbers of the respective study group in comparison to parasite counts on a placebo-treated control group. Infestation of groups with less than 75% efficacy on two consecutive counting occasions will terminated for the respective parasite.

Ctenocephalides felis [3] = assay: Antiparasitic activity after administration to dogs, fleas; type: in vivo; conditions: iv, 2 × 5 mg/kg, CF
Description: as §1, §2, §3, §4, §5

[4] = Evaluation of pharmacokinetics (in vivo), rat; conditions: concentration of parent compound A
Description: Evaluation of Pharmacokinetics (In Vivo) To evaluate the pharmacokinetics of test substances in vivo, these test substances are dissolved in appropriate formulation vehicles (ethanol, dimethyl sulfoxide, PEG400, glycerol formal etc.), or mixtures thereof. The test substances are then administered to rats or dogs intravenously, orally or subcutaneously. The intravenous application is performed as bolus. Administered doses range usually between 0.1 to 5 mg/kg, however, doses for subcutaneous and oral administration can exceed this range up to doses of 30 mg/kg. Blood samples are retrieved via a catheter, exsanguination or venous puncture in vials containing appropriate anticoagulants, such as lithium heparinate or potassium EDTA. Plasma is generated from the blood via centrifugation. Blood samples are taken over an appropriate time interval, usually lasting up to 144h after administration. If necessary, samples from later time points can also be taken. If possible, time points are chosen so that the initial absorption phase, the maximum plasma concentration (Cmax), and exposure within a certain time interval (AUC(0-t)) are described. Furthermore, it is possible to also retrieve organ-, tissue- and urine samples. The quantitative measurement of the test substances in the samples is performed using calibration curves in the respective matrices. The protein content of the samples is precipitated using acetonitrile or methanol. Thereafter, the samples are separated using HPLC in combination with reversed phase chromatography columns. The HPLC system is coupled to a triple quadrupole mass spectrometer via an electrospray interface. The evaluation of the plasma concentration/time profiles are afterwards evaluated using a validated pharmacokinetics evaluation program. […] Relative bioavailability (Frel) was used to describe the exposure of parent after prodrug administration compared to the exposure of parent after direct administration of compound A which was normalised to 100%.

Dermacentor variabilis [5] = assay: Antiparasitic activity after administration to rats, tick nymphs; type: in vivo; conditions: Dermacentor variabilis, ip, 10 mg/kg, DV N
Description: as §6

Ixodes ricinus = assay: Antiparasitic activity after administration to dogs, I. ricinus ticks; type: in vivo; conditions: IR
Description: as §1, §2, §3, §4, §5

Amblyomma americanum = assay: Antiparasitic activity after administration to dogs, A. americanum ticks; type: in vivo; conditions: AA
Description: as §1, §2, §3, §4, §5

Dermacentor variabilis [6] = assay: Antiparasitic activity after administration to dogs, D. variabilis ticks; type: in vivo; conditions: DV
Description: as §1, §2, §3, §4, §5

[7] = iv, 2 × 5 mg/kg, study 1, month 1
[8] = iv, 2 × 5 mg/kg, study 1, month 2
[9] = iv, 2 × 5 mg/kg, study 1, month 3
[10] = iv, 2 × 5 mg/kg, study 1, month 4
[11] = iv, 2 × 5 mg/kg, study 1, month 5
[12] = iv, 2 × 5 mg/kg, study 1, month 6
[13] = iv bolus of the named substance
[14] = sc administration of the named substance
[15] = 48 h, study day 2, read-out: Efficacy SD2
[16] = 216 h, study day 9, read-out: Efficacy SD9
[17] = 384 h, study day 16, read-out: Efficacy SD16

AUC(0-72 h)norm of parent compound A [1, 13]: 6.0 kg·h/L
AUC(0-384 h)norm of parent compound A [1, 14]: 1.0 kg·h/L
AUC(0-144 h)norm of parent compound A [4, 13]: 11 kg·h/L
AUC(0-24)norm of parent compound A ([4]; po, 20 mg/kg): 0.37 kg·h/L
AUC(0-144 h)norm of parent compound A [4, 14]: 1.7 kg·h/L
SMILES: N#CC1(NC(=O)c2cc(-c3cnn(-c4c(Cl)cc(C(F)(C(F)(F)F)C(F)(F)F)cc4OC(F)(F)F)c3)ccc2Cl)CC1 [Parent Compound A, 2-Chlor-5-{1-[2-chlor-4-(1,1,1,2,3,3,3-heptafluorpropan-2-yl)-6-(trifluormethoxy)phenyl]-1H-pyrazol-4-yl}-N-(1-cyanocyclopropyl)benzamide]
% Efficacy in study month 1 (Rhipicephalus sanguineus; [7]): 100%
% Efficacy in study month 2 (Rhipicephalus sanguineus; [8]): 100%
% Efficacy in study month 3 (Rhipicephalus sanguineus; [9]): 100%
% Efficacy in study month 4 (Rhipicephalus sanguineus; [10]): 100%
% Efficacy in study month 5 (Rhipicephalus sanguineus; [11]): 100%
% Efficacy in study month 6 (Rhipicephalus sanguineus; [12]): 99%
% Efficacy in study month 6 (Rhipicephalus sanguineus; sc, 5 mg/kg, study 3, month 6): 50%
pest or weed control at 10 mg/kg (Ctenocephalides felis [2]; [15]): 84%
pest or weed control at 10 mg/kg (Ctenocephalides felis [2]; [16]): 68%
pest or weed control at 10 mg/kg (Ctenocephalides felis [2]; [17]): 71%
% Efficacy in study month 1 (Ctenocephalides felis [3]; study 1, month 1): 100%
% Efficacy in study month 2 (Ctenocephalides felis [3]; study 1, month 2): 100%
% Efficacy in study month 3 (Ctenocephalides felis [3]; study 1, month 3): 100%
% Efficacy in study month 4 (Ctenocephalides felis [3]; study 1, month 4): 100%
% Efficacy in study month 5 (Ctenocephalides felis [3]; study 1, month 5): 100%
% Efficacy in study month 6 (Ctenocephalides felis [3]; study 1, month 6): 100%
inhibition in vivo at 10 mg/kg (Dermacentor variabilis [5]; [15]): 96%
inhibition in vivo at 10 mg/kg (Dermacentor variabilis [5]; [16]): 87%
inhibition in vivo at 10 mg/kg (Dermacentor variabilis [5]; [17]): 83%
inhibition in vivo at 10 mg/kg (Dermacentor variabilis [5]; 552 h, study day 23, read-out: Efficacy SD23): 93%
inhibition in vivo at 10 mg/kg (Dermacentor variabilis [5]; 720 h, study day 30, read-out: Efficacy SD30): 53%
inhibition in vivo at 10 mg/kg (Dermacentor variabilis [5]; 888 h, study day 37, read-out: Efficacy SD37): 32%
% Efficacy in study month 1 (Ixodes ricinus; [7]): 100%
% Efficacy in study month 2 (Ixodes ricinus; [8]): 100%
% Efficacy in study month 3 (Ixodes ricinus; [9]): 100%
% Efficacy in study month 4 (Ixodes ricinus; [10]): 100%
% Efficacy in study month 5 (Ixodes ricinus; [11]): 98%
% Efficacy in study month 6 (Ixodes ricinus; [12]): 98%
% Efficacy in study month 6 (Ixodes ricinus; sc, 5 mg/kg, study 3, month 6): 3%
% Efficacy in study month 1 (Amblyomma americanum; iv, 2 × 5 mg/kg, study 2, month 1): 100%
% Efficacy in study month 2 (Amblyomma americanum; iv, 2 × 5 mg/kg, study 2, month 2): 99%
% Efficacy in study month 3 (Amblyomma americanum; iv, 2 × 5 mg/kg, study 2, month 3): 99%
% Efficacy in study month 4 (Amblyomma americanum; iv, 2 × 5 mg/kg, study 2, month 4): 99%
% Efficacy in study month 5 (Amblyomma americanum; iv, 2 × 5 mg/kg, study 2, month 5): 95%
% Efficacy in study month 6 (Amblyomma americanum; iv, 2 × 5 mg/kg, study 2, month 6): 98%
% Efficacy in study month 6 (Amblyomma americanum; sc, 5 mg/kg, study 3, month 6): 90%
% Efficacy in study month 1 (Dermacentor variabilis [6]; [7]): 98%
% Efficacy in study month 2 (Dermacentor variabilis [6]; [8]): 99%
% Efficacy in study month 3 (Dermacentor variabilis [6]; [9]): 100%
% Efficacy in study month 4 (Dermacentor variabilis [6]; [10]): 95%
% Efficacy in study month 5 (Dermacentor variabilis [6]; [11]): 98%
% Efficacy in study month 6 (Dermacentor variabilis [6]; [12]): 84%
% Efficacy in study month 6 (Dermacentor variabilis [6]; sc, 5 mg/kg, study 3, month 6): 19%

Source: patent US20220008391A1, “NOVEL COMPOUNDS FOR CONTROLLING ARTHROPODS” (Bayer Animal Health GmbH, priority 2018, published 2022)
